How the values were obtained:
[1] = system: Phase 2b/3 pooled population; test: Pooled analysis of cardiovascular events and death in the Phase 2b/3 clinical studies; format: in vivo, human; details: for CEC-CV death/MI/stroke: CEC-adjudicated; for All MI / All stroke: fatal and/or non-fatal
Procedure: The mortality and adverse CV event data shown in the Tables and Figures herein were analyzed from the Phase 2b and Phase 3 studies (Phase 2b/3).
Mortality incidences caused by stroke, heart attack, heart failure, or blood vessel problems not associated with the heart or brain, were defined as CV death. Death by any means, including CV death, was defined as All-cause Mortality or All-cause death.
Acute CV events, as defined herein, includes all cardiovascular disorders associated with Phase 2b/3 subjects that were diagnosed by a medical physician during the studies as acute and clinically significant including MACE events and also procedures (for example, cardiac bypass surgery) and severe ischemic event such as unstable angina. Primary MACE means non-fatal myocardial infarction (MI), non-fatal stroke, and CV death. Secondary MACE accounts for All-cause deaths (death by any means) in addition to non-fatal MI, non-fatal stroke, and CV death.
First, two physicians at the Clinical Event Center (CEC) of the Duke Clinical Research Institute (Durham, N.C.) served as consultants to the sponsor and performed a retrospective treatment-blinded independent adjudication of all identified potential CV events. […] Adjudication was based on definitions typical for such review and prespecified by the reviewers.

subjects = test: Phase 1-3 clinical development, tolerability; format: in vivo, human
[2] = system: subjects of pooled studies; test: Ischemic serious adverse events (heart or brain related) in pooled studies, Fischer Exact Test analysis (FIG. 12); format: in vivo, human; details: FIG. 12, per 100 comparator
non-diabetic rats = test: Two year survival of non-diabetic rats (FIGS. 7-8); format: in vivo, rat; details: 25 mg/kg/day, two years
From the text: (§1) In these studies, approximately sixty animals of each gender were exposed to saxagliptin or two cohorts of placebo over two years, the approximate lifetime of a rodent. […] The differences in survival time between male and female rodents are not currently explained. A possible explanation for the rat results is that the dose taken by male rats, 45 times the human equivalent dose, was closer to the human experience than the same dose taken by female rats, 112 times the human equivalent dose, and therefore the male experience may be more relevant.

non-diabetic mice = test: Two year survival of non-diabetic mice (FIGS. 9-10); format: in vivo, mouse; details: 50 mg/kg/day, two years
From the text: as §1

[3] = system: subjects administered sitagliptin or metformin; test: Health insurance data analysis of heart attack, sitagliptin relative to metformin (FIG. 13); format: in vivo, human; details: propensity adjusted, 27,424 sitagliptin vs 80,462 metformin subjects
[4] = All Saxa (2.5, 5, 10, 20, 40, 100 mg/d), N = 3356
[5] = CEC adjudication, all saxagliptin

N#C[C@@H]1C[C@@H]2C[C@@H]2N1C(=O)[C@@H](N)C12CC3CC(CC(O)(C3)C1)C2 [saxagliptin, (1S,3S,5S)-2-[(2S)-2-amino-2-(3-hydroxyadamantan-1-yl)acetyl]-2-azabicyclo[3.1.0]hexane-3-carbonitrile]
subjects having a Primary MACE (CV death/MI/stroke) ([1]; ALL SAXA group): 0.7%
Inv-CV death/MI/stroke [1, 4]: 23 (0.7) n (%)
CEC-CV death/MI/stroke [1, 4]: 22 (0.7) n (%)
All death ([1]; All Saxa, N = 3356): 10 (0.3) n (%)
Other CV death ([1]; All Saxa, N = 3356): 4 (0.1) n (%)
All MI ([1]; All Saxa, N = 3356): 8 (0.2) n (%)
All stroke ([1]; All Saxa, N = 3356): 11 (0.3) n (%)
All Stroke (fatal and non-fatal), proportion of subjects with events [1, 5]: 0.3%
Other CV death, proportion of subjects with events [1, 5]: 0.1%
all MI, proportion of subjects with events [1, 5]: 0.2%
Acute CV Events, Incidence rate ± SE ([1]; Phase 2/3 Pooled Population): 10.7 ± 1.8 events/1000 patient-years
Primary MACE, Incidence rate ± SE ([1]; Phase 2/3 Pooled Population): 6.2 ± 1.3 events/1000 patient-years
Secondary MACE, Incidence rate ± SE ([1]; Phase 2/3 Pooled Population): 7.0 ± 1.4 events/1000 patient-years
All death ([1]; Saxa 2.5 mg, N = 937): 3 (0.3) n (%)
Inv-CV death/MI/stroke ([1]; Saxa 2.5 mg, N = 937): 6 (0.6) n (%)
Other CV death ([1]; Saxa 2.5 mg, N = 937): 0 n (%)
CEC-CV death/MI/stroke ([1]; Saxa 2.5 mg, N = 937): 6 (0.6) n (%)
All MI ([1]; Saxa 2.5 mg, N = 937): 2 (0.2) n (%)
All stroke ([1]; Saxa 2.5 mg, N = 937): 4 (0.4) n (%)
All death ([1]; Saxa 5 mg, N = 1269): 3 (0.2) n (%)
Inv-CV death/MI/stroke ([1]; Saxa 5 mg, N = 1269): 6 (0.5) n (%)
Other CV death ([1]; Saxa 5 mg, N = 1269): 0 n (%)
CEC-CV death/MI/stroke ([1]; Saxa 5 mg, N = 1269): 7 (0.6) n (%)
All MI ([1]; Saxa 5 mg, N = 1269): 4 (0.3) n (%)
All stroke ([1]; Saxa 5 mg, N = 1269): 4 (0.3) n (%)
All death ([1]; Saxa 10 mg, N = 1000): 4 (0.4) n (%)
Inv-CV death/MI/stroke ([1]; Saxa 10 mg, N = 1000): 11 (1.1) n (%)
Other CV death ([1]; Saxa 10 mg, N = 1000): 4 (0.4) n (%)
CEC-CV death/MI/stroke ([1]; Saxa 10 mg, N = 1000): 9 (0.9) n (%)
All MI ([1]; Saxa 10 mg, N = 1000): 2 (0.2) n (%)
All stroke ([1]; Saxa 10 mg, N = 1000): 3 (0.3) n (%)
Proportion of subjects with SAE CHF events ([1]; all saxagliptin): 0.2%
overall frequency of CV deaths ([1]; all subjects treated with saxagliptin (7/3356)): 0.2%
all cause mortality (death by any means), frequency ([1]; all subjects treated with saxagliptin (10/3356)): 0.3%
incidence of MACE events in higher risk subgroups versus control ([1]; at least one or two CV risk factors in addition to T2DM, history of hypertension or hypercholesterolemia, males, FIGS. 3, 4): lowered incidence MACE events
MACE events incidence rate ([1]; subjects with a history of CV disease, FIG. 3): 9.2 MACE events per 1000 patient-years
fatal CHF events ([1]; two fatal events in total, both on comparator): none
adverse CV effects related to blood pressure or heart rate (subjects; Phase 1-3 studies overall): did not lead to adverse CV effects
tolerability (subjects; maximum oral daily doses 400 mg up to 2 weeks, 100 mg up to 6 weeks, 40 and 20 mg up to 12 weeks, 2.5, 5, 10 mg up to 2 years): well tolerated
ischemic SAEs (heart attack or stroke-like events causing death, hospitalization, or near hospitalization), subjects on drug when 100 subjects on comparator had events [2]: 57 subjects
survival versus placebo (non-diabetic rats; female rats, FIG. 8): intermediate between the two placebo cohorts
survival versus placebo (non-diabetic rats; male rats, FIG. 7): reduced risk of mortality or longer survival times
survival versus placebo (non-diabetic mice; female mice, FIG. 9): reduced risk of mortality
survival versus placebo (non-diabetic mice; male mice, FIG. 10): intermediate between the two placebo cohorts

N[C@@H](CC(=O)N1CCn2c(nnc2C(F)(F)F)C1)Cc1cc(F)c(F)cc1F [sitagliptin]
heart attack, subjects on sitagliptin in the time 100 subjects have a heart attack on metformin [3]: 65 subjects

N#C[C@@H]1CCCN1C(=O)CNC12CC3CC(CC(O)(C3)C1)C2 [vildagliptin, reference compound]
ischemic SAEs (heart attack or stroke-like events causing death, hospitalization, or near hospitalization), subjects on drug when 100 subjects on comparator had events [2]: 70 subjects

Source: patent US20100256153A1, “METHODS FOR PREVENTING OR REDUCING RISK OF MORTALITY” (priority 2009, published 2010)
